Data from the supplement of paper PMC10477900.

Columns and labels:
HCT116 [1] = settings: 72 h
Procedure: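 HCT116 control and MTA1-KO (CRISPR) HCT116 cells were seeded in 384-well plates (800 cells/well), treated 16 h later with 237 metabolism-related anticancer drugs at five doses (10 uM, 2 uM, 400 nM, 80 nM, 16 nM) for 72 h, two replicates; viability by CCK8. Values are % inhibition of viability relative to untreated cells, plus fitted IC50.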

HCT116 [2] = experiment: viability inhibition vs untreated; higher = more cytotoxic; settings: 72 h

SMILES	IC50 (HCT116 [1]; genotype: MTA1-KO)	IC50 (HCT116 [1]; genotype: control)	viability inhibition (HCT116 [2]; genotype: MTA1-KO, 16 nM)	viability inhibition (HCT116 [2]; genotype: MTA1-KO, 80 nM)	viability inhibition (HCT116 [2]; genotype: MTA1-KO, 400 nM)	viability inhibition (HCT116 [2]; genotype: MTA1-KO, 2000 nM)	viability inhibition (HCT116 [2]; genotype: MTA1-KO, 10000 nM)	viability inhibition (HCT116 [2]; genotype: control, 16 nM)	viability inhibition (HCT116 [2]; genotype: control, 80 nM)	viability inhibition (HCT116 [2]; genotype: control, 400 nM)	viability inhibition (HCT116 [2]; genotype: control, 2000 nM)	viability inhibition (HCT116 [2]; genotype: control, 10000 nM)
C[C@H](Oc1cc(-c2cnn(C3CCNCC3)c2)cnc1N)c1c(Cl)ccc(F)c1Cl [(S)-crizotinib]	9.42 µM	> 10 µM	-3.98%	-2.9%	-13.5%	-16.1%	66.9%	6.82%	-13.4%	-0.064%	-12.1%	-7.51%
CC(C)[C@]12O[C@H]1[C@@H]1O[C@]13[C@]1(O[C@H]1C[C@H]1C4=C(CC[C@@]13C)C(=O)OC4)[C@@H]2O [Triptolide]	< 0.016 µM	< 0.016 µM	58.4%	92.8%	88.9%	90.8%	92.2%	67.7%	105%	90.1%	89.5%	91.8%
CCc1ccc(/C=C2/SC(=S)NC2=O)cc1	> 10 µM	> 10 µM	-4.9%	-10%	-9.11%	-3.79%	1.27%	7.22%	4.14%	13%	9.23%	12.7%
Nc1nc(Cl)nc2c1ncn2[C@@H]1O[C@H](CO)[C@@H](O)[C@@H]1F [Clofarabine]	0.257 µM	0.141 µM	-2.4%	4.43%	55.5%	80.4%	75.8%	-9.53%	-5%	88.4%	88.9%	92.8%
CCC(=O)Nc1cccc(Oc2nc(Nc3ccc(N4CCN(C)CC4)cc3OC)ncc2Cl)c1 [WZ4003]	> 10 µM	> 10 µM	-5.75%	-20%	-8%	-5.19%	8.72%	8.56%	-15.4%	-4.38%	-7.1%	12.2%
O=c1oc2c(O)c(O)cc3c(=O)oc4c(O)c(O)cc1c4c23 [Ellagic acid]	> 10 µM	> 10 µM	-9.03%	-12.1%	-9.22%	-2.14%	-6.22%	-17.2%	-19%	-17.4%	-13.6%	-11.3%
CC(C)(O)CNc1nc(Nc2ccnc(C(F)(F)F)c2)nc(-c2cccc(C(F)(F)F)n2)n1 [Enasidenib]	> 10 µM	> 10 µM	-26%	-20.5%	-17.3%	-19.3%	-24.8%	-12.3%	-12.7%	-4.75%	-20.9%	-15.6%
CN(Cc1ccccc1)c1ccc2cc(C(=O)O)c(=O)oc2c1 [7ACC2]	> 10 µM	0.373 µM	-27.3%	-0.988%	20.9%	24.6%	29%	15%	-0.73%	50.7%	64.6%	80.8%
Cc1c(-c2cnccn2)ssc1=S [Oltipraz]	> 10 µM	> 10 µM	-30.8%	-24.9%	-26.7%	-26.6%	-33.9%	-15.3%	-6.71%	-20.1%	-19.1%	-6.16%
NS(=O)(=O)NCCNc1nonc1C(=Nc1ccc(F)c(Br)c1)NO [Epacadostat]	> 10 µM	> 10 µM	17.9%	-8.61%	-7.79%	-6.79%	6.59%	-9.21%	-6.3%	-14.3%	-5.67%	-5.46%
O=c1[nH]cc(F)c(=O)[nH]1 [Fluorouracil]	6.47 µM	3.81 µM	-23.1%	-26%	-27.2%	1.88%	53.9%	-8.89%	-1.82%	8.13%	22.2%	83.9%
CC(C)(C#N)c1ccc(N2C(=O)OCc3cnc4ccc(-c5cnc6ccccc6c5)cc4c32)cc1	> 10 µM	> 10 µM	-21.1%	-19.6%	-26.7%	-3.23%	30.7%	8.09%	-11.9%	-11.4%	-0.304%	45.6%
CCCCCCCCCCCCc1ccc(S(=O)(=O)Nc2nncs2)cc1 [PHT427]	> 10 µM	> 10 µM	-19.3%	-22.1%	-13%	-17.1%	-3.56%	20.4%	-3.89%	-1.76%	-0.669%	9.06%
Cc1ccc(Oc2nc3cc(-c4ccc(-c5ccccc5)cc4)c(Cl)cc3[nH]2)cc1C(=O)O [MK3903]	5.67 µM	7.34 µM	-12.7%	-22.9%	-10.6%	0.304%	68%	11.1%	8.79%	24.8%	19.4%	59.8%
NS(=O)(=O)c1cc2c(cc1Cl)NC(CSCc1ccccc1)=NS2(=O)=O [Benzthiazide]	> 10 µM	> 10 µM	-4.89%	-8.13%	-6.12%	-11.1%	36.1%	-2.68%	0.658%	-1.2%	7.85%	44.8%
Cc1cc(-c2nc(-c3ccc(OC(F)(F)F)cc3)no2)nn1Cc1ccnc(N2CCN(C3CC3)CC2)c1 [BAY 87-2243]	> 10 µM	< 0.016 µM	21%	24.5%	21.4%	19.2%	19.2%	86.8%	72.7%	68.2%	67.4%	70.2%
N#CNC(=NCCCCCCOc1ccc(Cl)cc1)Nc1ccncc1 [CHS 828]	0.535 µM	1.85 µM	-0.922%	-1.84%	18.8%	41.1%	49%	-11.1%	18.5%	30.7%	59.8%	79.4%
Cc1[nH]nc(C(F)(F)F)c1Cc1sc2c(c1C(=O)N1C[C@](C)(O)CO1)c(=O)n(C)c(=O)n2C(C)C [AZD3965]	0.576 µM	0.338 µM	-7.19%	25.1%	22.9%	31.7%	47.6%	0.727%	24.8%	21.6%	40.3%	45.9%
Oc1cccc(-c2nc(N3CCOCC3)c3oc4ncccc4c3n2)c1 [PI103]	1.82 µM	5.97 µM	7.63%	-22.6%	-6.55%	42.3%	80.5%	-15.1%	-2.17%	-8.02%	-2.63%	80.1%
